Test results reported in US6521814B1, “Use of ligands for treatment of diseases responsive to retinoids” (Institut National de la Santa et de la Recherche Medicale, priority 1997, dated 2003).

What was measured:
D2R promoter = D2R promoter CAT reporter assay in transfected COS-1 cells, reporter alone; type: cell-based, rat; conditions: C1 reporter-transfected COS-1 cells, no receptor vector; 10^−7 M
Excerpt: Expression Vectors. The C1 reporter construct was obtained by subcloning the HindIII fragment spanning the 5 ′ promoter region of the D2R gene (positions −495 to +273), in the reporter plasmid pBLCAT3 (Luckow, B. & Schütz, G., Nucleic Acids Res. 15:5490 (1987)). The C2 reporter plasmid was constructed by subcloning the SmaI-XhoI fragment (positions −76 to +273) in the same position. The C3 and C4 reporters were generated by cloning a 29 bp synthetic oligonucleotide corresponding, respectively, to the natural rat D2R RARE sequence and the mutated one into pBLCAT2 (Luckow, B. & Schütz, G., Nucleic Acids Res. 15:5490 (1987)). The polylinker in pBLCAT2 is located upstream of the herpes simplex virus 1 (HSV1) thymidine kinase (TK) promoter, from position −105 to +51. To measure transfection efficiency the plasmid pCH110 carrying the β-galactosidase gene (Pharmacia) was used. Mouse […], as well as mouse RXRα, β and γ expression vectors were derived from the parental pSG5 vector (Green, S., et al., Nucleic Acids Res. 16:369 (1988)).
COS-1 cells were used for transient transfection assays. Cells were grown in Dulbecco's modified Eagle's medium supplemented with 5% fetal calf serum.
Several hours before transfection, the medium was replaced with fresh medium containing 5% charcoal-treated FCS. […]

WT F9 cells = test: Proliferation of F9 cells in monolayer culture (cell counting, [3H]thymidine incorporation, cell cycle FACS); type: cell-based, murine; conditions: 1 μM, 5 d
Procedure: Cells were plated in triplicate 3-cm culture wells (5×10^2 cells per well), and cell counting experiments were performed as previously described (Clifford, J., et al., EMBO J. 15:4142-4155 (1996)). [^3H]Thymidine incorporation assays were performed essentially as described (Clifford, J., et al., EMBO J. 15:4142-4155 (1996)), with the following modifications. […] The cell cycle profile of WT and mutant cells was determined as previously described (Clifford, J., et al. EMBO J. 15:4142-4155 (1996)).

RXRα−/−/RARγ−/− F9 cells [1] = test: Apoptosis of F9 cells (Hoechst 33258 staining, FACS); type: cell-based, murine; conditions: 1 μM, after 5 d
RARγ−/− F9 cells = test: Morphological differentiation of F9 cell aggregates into visceral endoderm (VE)-like cells (morphology, RT-PCR of markers); type: cell-based, murine
Procedure: F9 cells were cultured and induced to differentiate into primitive, parietal and visceral endoderm-like cells as previously described (Boylan, J., et al., Proc. Natl. Acad. Sci. USA 90:9601-9605 (1993); Clifford, J., et al., EMBO J. 15:4142-4155 (1996)).
RNA preparation, RT-PCR, and Southern blotting were performed as previously described (Bouillet, P., et al., Dev. Biol. 170:420-433 (1995); Roy, B., et al., Mol. Cell. Biol. 15:6481-6487 (1995)). The PCR primers and end-labeled oligonucleotide probes for collagen IVα1, laminin B1, α-fetoprotein (AFP), and 36B4, were described previously (Clifford, J., et al ., EMBO J. 15:4142-4155 (1996)). Transcript levels were quantified using a BAS 2000 bioimaging analyzer (Fuji Ltd., Tokyo, Japan), and were normalized to the corresponding 36B4 signals.

RXRα−/− F9 cells = test: Differentiation of F9 cells into primitive and parietal endoderm-like cells in monolayer (morphology, RT-PCR of collagen type IVα1 and laminin B1); type: cell-based, murine; conditions: 1 μM, 48 h
Excerpt: (§1) The differentiation patterns of RXRα^−/−/RARα^−/−and RXRα^−/−/RARγ^−/− cells were compared with those of WT and single knockout cell lines.
(§2) Transcript levels were quantified using a BAS 2000 bioimaging analyzer (Fuji Ltd., Tokyo, Japan), and were normalized to the corresponding 36B4 signals.

RXRα−/−/RARα−/− F9 cells = test: as above; type: cell-based, murine
Excerpt: as §1, §2

RXRα−/−/RARγ−/− F9 cells [2] = test: as above; type: cell-based, murine
Excerpt: as §1, §2

[3] = 1 μM tRA alone or with 250 μM bt2cAMP, after 4 d

CC1=C(/C=C/C(C)=C/C=C/C(C)=C/C(=O)O)C(C)(C)CCC1 [tRA, all-trans retinoic acid]
changes in CAT activity (D2R promoter): no significant changes | proportion of cells in the G0 and G1 phases (FACS) (WT F9 cells): 71% | sub-2N size DNA-containing particles ('apoptotic bodies'), FACS (RXRα−/−/RARγ−/− F9 cells [1]): not detected | induction of AFP mRNA (RARγ−/− F9 cells; RARγ−/− aggregates, 50 nM, 10 d): hardly detectable | proportion of outer layer of cells displaying VE morphology (RARγ−/− F9 cells; RARγ−/−, 50 nM, 10 d): ± (not more than 10%) | outer layer of cells exhibiting VE conversion (RARγ−/− F9 cells; RARγ−/−, 50 nM, after 10 d): < 10% | proportion of outer layer of cells displaying VE morphology (RARγ−/− F9 cells; RARγ−/−, 50 nM, after 14 d of treatment): +++ (more than 80%) | VE differentiation (RARγ−/− F9 cells; RARγ−/−, after 14 d of treatment): full VE differentiation was eventually achieved | induction of collagen type IVα1 mRNA, lower level compared to WT cells (RXRα−/− F9 cells): 3 fold | induction of laminin B1 mRNA, lower level compared to WT cells (RXRα−/− F9 cells): 6 fold | cells with morphological characteristics of primitive or parietal endodermal differentiation (RXRα−/−/RARα−/− F9 cells; [3]): < 10% | induction of collagen type IVα1 mRNA, lower level compared to WT cells (RXRα−/−/RARα−/− F9 cells; 1 μM, 48 h): five | morphological differentiation (RXRα−/−/RARγ−/− F9 cells [2]; [3]): No morphological differentiation at all | induction of collagen type IVα1 and laminin B1 mRNA (RXRα−/−/RARγ−/− F9 cells [2]; 1 μM, 48 h): fully abrogated | cells exhibiting a differentiated morphology (RXRα−/−/RARγ−/− F9 cells [2]; after 6 days of treatment): < 0.1% | morphological differentiation (RXRα−/−/RARγ−/− F9 cells [2]; after 10 d of treatment): undifferentiated phenotype persisted
